From publication PMC7493219 (Journal of Crohn's & Colitis, 2020)
Read-outs that look alike come from different tables or passages of the source.

Experiments:
human recombinant TYK2 = human recombinant TYK2 (Homo sapiens, UniProt P29597); assay: LanthaScreen kinase assay; format: biochemical
mouse recombinant JAK1 = mouse recombinant JAK1 (Mus musculus, UniProt P52332); assay: LanthaScreen kinase assay; format: biochemical
[1] = system: IL-13-induced pSTAT6 in HT-29 cells; assay: HT-29 IL-13/pSTAT6 assay; format: cell-based; details: Homo sapiens, HT-29, read-out: Mean ± SD inhibitory potency [pIC50], IL-13/pSTAT6 (converted)
[2] = system: IL-13-potentiated IL-8 production in HT-29 cells; assay: HT-29 IL-13/IL-8 assay; format: cell-based; details: Homo sapiens, HT-29, read-out: Mean ± SD inhibitory potency [pIC50], IL-13/IL-8 (converted)
[3] = system: IL-4-induced pSTAT6 in THP-1 cells; assay: THP-1 IL-4/pSTAT6 assay; format: cell-based; details: Homo sapiens, THP-1, read-out: Mean ± SD inhibitory potency [pIC50], IL-4/pSTAT6 (converted)
[4] = system: IL-6-induced pSTAT3 in THP-1 cells; assay: THP-1 IL-6/pSTAT3 assay; format: cell-based; details: Homo sapiens, THP-1, read-out: Mean ± SD inhibitory potency [pIC50], IL-6/pSTAT3 (converted)
[5] = system: GM-CSF-induced pSTAT5 in THP-1 cells; assay: THP-1 GM-CSF/pSTAT5 assay; format: cell-based; details: Homo sapiens, THP-1, read-out: Mean ± SD inhibitory potency [pIC50], GM-CSF/pSTAT5 (converted)
[6] = system: GM-CSF-induced pSTAT5 in human whole blood; assay: Human whole blood GM-CSF/pSTAT5 assay; format: cell-based; details: read-out: Mean ± SD inhibitory potency [pIC50], GM-CSF/pSTAT5 (converted)
[7] = system: IL-6-induced pSTAT1 in Balb/C mouse primary colonic epithelial cells; assay: Mouse colonic epithelial cell IL-6/pSTAT1 assay; format: cell-based; details: from Table 1 pIC50
[8] = system: oxazolone-induced colitis; assay: Oxazolone-induced colitis model; format: in vivo, Balb/C mice; details: for effects of oxazolone (DAI and subscores): highest dose tested, 30 mg/kg
pSTAT3 in colonic mucosa = assay: Target engagement in the oxazolone colitis model; format: in vivo, Balb/C mice; details: oral 30 mg/kg BID; for T cell infiltration into the colonic mucosa: oxazolone-treated mice
[9] = system: splenic NK, T and B cells; assay: Splenocyte studies; format: in vivo, Balb/C mice; details: 3 days
[10] = system: moderately to severely active UC; assay: Phase 1b study, efficacy assessments; format: in vivo, human; details: after the 28-day treatment, all doses
[11] = FTIH SAD/MAD study, safety and tolerability in healthy subjects; format: in vivo, human; details: single dose up to 1000 mg, daily doses up to 300 mg for 14 days
[12] = Phase 1b study, safety and tolerability in UC patients; format: in vivo, human; details: 20, 80, 270 mg QD 28 days
clinical = details: human, in vivo
[13] = Oral pharmacokinetics in mice; details: for concentration at 24 h / Cmax: male, Balb/C, mouse, in vivo, 10 mg/kg; for Cmax: po

Chain of mouse recombinant JAK1 (P52332 whole entry): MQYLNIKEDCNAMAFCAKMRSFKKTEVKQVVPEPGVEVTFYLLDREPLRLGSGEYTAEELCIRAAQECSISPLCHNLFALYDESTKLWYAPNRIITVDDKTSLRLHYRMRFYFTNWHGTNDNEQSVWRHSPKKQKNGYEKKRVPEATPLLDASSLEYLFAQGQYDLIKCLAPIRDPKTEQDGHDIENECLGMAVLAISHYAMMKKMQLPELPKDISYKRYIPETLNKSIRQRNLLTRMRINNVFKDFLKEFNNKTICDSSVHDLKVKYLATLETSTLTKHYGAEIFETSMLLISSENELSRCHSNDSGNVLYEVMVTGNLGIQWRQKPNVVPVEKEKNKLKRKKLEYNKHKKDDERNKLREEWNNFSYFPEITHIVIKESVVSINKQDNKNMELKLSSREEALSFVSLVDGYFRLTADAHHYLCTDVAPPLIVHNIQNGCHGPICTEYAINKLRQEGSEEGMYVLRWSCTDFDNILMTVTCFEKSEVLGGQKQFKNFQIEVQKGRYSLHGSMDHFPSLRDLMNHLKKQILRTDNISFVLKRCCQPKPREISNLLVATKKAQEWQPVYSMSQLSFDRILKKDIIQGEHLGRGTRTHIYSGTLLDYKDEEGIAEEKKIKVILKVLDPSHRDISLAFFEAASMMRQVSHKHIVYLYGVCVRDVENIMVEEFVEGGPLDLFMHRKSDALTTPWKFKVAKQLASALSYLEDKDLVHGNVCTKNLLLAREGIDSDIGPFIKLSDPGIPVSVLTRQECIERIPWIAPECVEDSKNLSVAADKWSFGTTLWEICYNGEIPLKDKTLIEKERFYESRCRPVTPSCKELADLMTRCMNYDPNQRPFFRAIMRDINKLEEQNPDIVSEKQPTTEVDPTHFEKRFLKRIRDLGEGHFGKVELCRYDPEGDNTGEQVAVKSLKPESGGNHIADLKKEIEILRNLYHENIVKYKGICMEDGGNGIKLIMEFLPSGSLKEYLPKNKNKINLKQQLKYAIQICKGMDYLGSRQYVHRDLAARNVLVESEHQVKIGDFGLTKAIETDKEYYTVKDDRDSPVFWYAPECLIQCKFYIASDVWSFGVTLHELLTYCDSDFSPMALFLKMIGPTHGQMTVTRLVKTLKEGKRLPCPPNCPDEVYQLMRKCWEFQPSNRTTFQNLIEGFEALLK
Chain of human recombinant TYK2 (P29597 whole entry): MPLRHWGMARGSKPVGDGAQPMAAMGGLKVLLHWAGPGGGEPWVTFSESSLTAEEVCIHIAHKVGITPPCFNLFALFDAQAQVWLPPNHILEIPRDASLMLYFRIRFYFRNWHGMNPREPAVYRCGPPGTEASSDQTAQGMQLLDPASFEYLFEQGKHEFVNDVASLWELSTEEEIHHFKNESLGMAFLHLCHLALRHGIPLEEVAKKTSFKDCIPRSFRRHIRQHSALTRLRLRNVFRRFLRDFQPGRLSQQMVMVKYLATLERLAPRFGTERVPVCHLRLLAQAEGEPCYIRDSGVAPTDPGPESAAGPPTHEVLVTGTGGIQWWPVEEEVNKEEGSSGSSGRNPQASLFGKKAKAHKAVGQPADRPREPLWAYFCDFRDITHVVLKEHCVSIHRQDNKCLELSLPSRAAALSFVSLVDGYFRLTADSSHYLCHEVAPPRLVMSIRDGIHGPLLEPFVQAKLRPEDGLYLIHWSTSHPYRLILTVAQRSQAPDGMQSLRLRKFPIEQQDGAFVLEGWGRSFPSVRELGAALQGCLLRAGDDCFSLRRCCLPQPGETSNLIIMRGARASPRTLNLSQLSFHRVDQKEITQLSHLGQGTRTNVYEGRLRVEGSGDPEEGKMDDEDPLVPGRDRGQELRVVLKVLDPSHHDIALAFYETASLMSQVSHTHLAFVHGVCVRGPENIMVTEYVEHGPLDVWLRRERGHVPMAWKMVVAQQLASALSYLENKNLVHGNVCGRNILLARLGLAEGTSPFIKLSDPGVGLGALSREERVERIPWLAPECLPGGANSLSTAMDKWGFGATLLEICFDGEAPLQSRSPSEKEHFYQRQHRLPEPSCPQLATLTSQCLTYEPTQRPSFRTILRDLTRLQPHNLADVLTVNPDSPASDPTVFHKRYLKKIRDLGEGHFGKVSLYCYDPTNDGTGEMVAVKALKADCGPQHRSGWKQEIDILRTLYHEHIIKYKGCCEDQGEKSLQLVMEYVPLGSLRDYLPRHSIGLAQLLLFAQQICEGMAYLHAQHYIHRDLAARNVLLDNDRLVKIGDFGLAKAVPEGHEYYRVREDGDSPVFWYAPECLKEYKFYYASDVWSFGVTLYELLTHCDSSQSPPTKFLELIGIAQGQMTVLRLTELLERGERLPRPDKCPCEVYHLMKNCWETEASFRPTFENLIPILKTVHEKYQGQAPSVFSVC

In the case of Cc1cc(Nc2cc3ncccc3c(N[C@@H]3C[C@H]4CC[C@@H](C3)N4CCC#N)n2)n[nH]1 [TD-1473], the “stronger potency for TYK2 compared with tofacitinib” value (human recombinant TYK2) is reported as “approximately 40 fold”, the Ki (mouse recombinant JAK1) is reported as 0.0631 nM and the IC50 [1] is reported as 79.4 nM. For the same compound, the IC50 [2] was 79.4 nM, the IC50 [3] was 31.6 nM and the IC50 [4] was 50.1 nM. The IC50 [5] was 100 nM, the IC50 [6] was 200 nM and the “mouse colonic epithelial IL-6/pSTAT1 IC50” value [7] was 0.020 µg/g. For the same compound, the “effects of oxazolone (DAI and subscores)” value [8] was “did not significantly attenuate”, the “oxazolone-induced elevated DAI, reduction in body weight and stool consistency, increase in stool blood content” value ([8]; oral 0.3–10 mg/kg BID) was “attenuated” and the “T cell infiltration into the colonic mucosa” value (pSTAT3 in colonic mucosa; 30 mg/kg) was “preventing T cell infiltration”. The “pSTAT3 levels in colonic mucosa of oxazolone-treated mice vs vehicle” value (pSTAT3 in colonic mucosa; 30 mg/kg) was “significantly inhibited”, the “numbers of splenic NK, B or T cells vs vehicle” value ([9]; oral 1, 10 and 100 mg/kg BID) was “did not affect” and the clinical remission [10] was “No patient achieved clinical remission”. The tolerability [11] was “generally well tolerated”, the “TEAE incidence, TD-1473 treatment arms overall” value [12] was 38.7% and the “laboratory parameters (haematological, renal, hepatic, creatinine phosphokinase, lipid)” value [12] was “did not adversely affect”. For the same compound, the tolerability [12] was “generally well tolerated”, the “colonic tissue concentration, geometric mean [95% CI]” value (20 mg QD, day 28) was 4090 [2270–7380] pg/g and the “geometric mean colonic tissue concentration [average of sigmoid and rectum]” value (20 mg QD, day 28) was 4090 pg/mL. For the same compound, the “patients with plasma trough concentration BLQ” value (20 mg, day 14) was 4/9, the “geometric mean colonic tissue concentration [average of sigmoid and rectum]” value (80 mg QD, day 28) was 65 300 pg/mL and the “geometric mean trough concentration as % of Cmax” value (80 mg, day 14) was 3.57%. The “geometric mean colonic tissue concentration [average of sigmoid and rectum]” value (270 mg QD, day 28) was 43 500 pg/mL, the “geometric mean trough concentration as % of Cmax” value (270 mg, day 14) was 5.79% and the Tmax (clinical) was about 1 h. The concentration at 24 h [13] was under 0.25 nM, the Cmax ([13]; colon, 10 mg/kg oral) was 3690 ng/g and the Cmax ([13]; plasma, 10 mg/kg oral) was 1.4 ng/mL.

For C[C@@H]1CCN(C(=O)CC#N)C[C@@H]1N(C)c1ncnc2[nH]ccc12 [tofacitinib, reference compound], the “effects of oxazolone (DAI and subscores)” value [8] was “did not significantly attenuate”, the “oxazolone-induced elevated DAI, reduction in body weight and stool consistency, increase in stool blood content” value ([8]; oral 10 and 15 mg/kg TID) was “attenuated” and the “T cell infiltration into the colonic mucosa” value (pSTAT3 in colonic mucosa) was “preventing T cell infiltration”. The “pSTAT3 levels in colonic mucosa of oxazolone-treated mice vs vehicle” value (pSTAT3 in colonic mucosa; 30 mg/kg) was “significantly inhibited”, the “splenic T and B cell numbers” value ([9]; oral 10, 15 and 30 mg/kg TID) was “did not affect” and the “colonic level 24 h postdose (BLQ)” value ([13]; 10 mg/kg oral) was under 0.00025 µM. For the same compound, the concentration at 24 h [13] was under 0.25 nM, the Cmax ([13]; colon, 10 mg/kg oral) was 2570 ng/mL and the Cmax ([13]; plasma, 10 mg/kg oral) was 193 ng/mL.
